Reference: patent US9333193B2, “Compositions and methods for treating tuberculosis” (priority 2010, dated 2016)
Converted amounts (≈) assume the structure as drawn. Like-named read-outs stand apart in the source and are kept apart here.

Key:
[1] = system: Mycobacterium tuberculosis; assay: microbe, parasite or virus in culture; conditions: agar proportion
[2] = system: Mycobacterium abscessus AAy-P-1; assay: Anti-mycobacterial activity of nitazoxanides, MIC in Middlebrook 7H9; type: cell-based; conditions: Middlebrook 7H9, 37° C.; for MIC: Mycobacteroides abscessus, AAYP1, read-out: Minimal Inhibitory Concentration, M. abscessus
Protocol: (§1) (1) Strains: Mycobacterium smegmatis mc2155, Mycobacterium chelonae EOP-1, Mycobacterium marinum ATCC 927, Mycobacterium avium Va14(T), and Mycobacterium abscessus AAy-P-1).
(§2) (2) Medium: Middlebrook 7H9 containing 0.5% (vol/vol) glycerol and 10% (vol/vol) oleic acid-albumin.
(§3) (3) Incubation Temperature: 37° C., except M. marinum 30° C.
(§4) (4) Nitazoxanides: Precipitates were present in wells of nitazoxanides with high concentrations (250-31 μg/mL) except for 162080, 162088, 16b2026, and 16b2031.
(§5) The strains used were Mycobacterium smegmatis mc2155, Mycobacterium chelonae EOP-1, Mycobacterium marinum ATCC 927, Mycobacterium avium Va14(T), and Mycobacterium abscessus AAy-P-1. The medium use was Middlebrook 7H9 containing 0.5% (vol/vol) glycerol and 10% (vol/vol) oleic acid-albumin. Incubation Temperature was 37° C., except for M. marinum at 30° C. For nitazoxanides, precipitates were present in wells of nitazoxanides with high concentrations (250-31 μg/mL) except for 162080, 162088, 16b2026, and 16b2031.

[3] = system: Mycobacterium chelonae EOP-1; assay: as above; type: cell-based; conditions: Middlebrook 7H9, 37° C.; for MIC: read-out: Minimal Inhibitory Concentration, M. chelonae
Protocol: as §1, §2, §3, §4, §5

[4] = system: Mycobacterium marinum ATCC 927; assay: as above; type: cell-based; conditions: Middlebrook 7H9, 30° C.; for MIC: Mycobacterium marinum, ATCC927, read-out: Minimal Inhibitory Concentration, M. marinum
Protocol: as §1, §2, §3, §4, §5

[5] = system: Mycobacterium avium Va14(T); assay: as above; type: cell-based; conditions: Middlebrook 7H9, 37° C.; for MIC: Mycobacterium avium, read-out: Minimal Inhibitory Concentration, M. avium
Protocol: as §1, §2, §3, §4, §5

[6] = system: TB organisms; conditions: cited from earlier work
[7] = system: Mycobacterium smegmatis mc2155; assay: Anti-mycobacterial activity of nitazoxanides, MIC in Middlebrook 7H9; type: cell-based; conditions: Middlebrook 7H9, 37° C.; for MIC: Mycolicibacterium smegmatis, MC2155, read-out: Minimal Inhibitory Concentration, M. smegmatis
Protocol: as §1, §2, §3, §4
(5) Decolorization: Almost all the yellow nitazoxanides, namely 16b1090, 16b1092 and 16b1093, 16b1094, 16b2023, 16b2025, and 16b2026 were decolorized by M. smegmatis strain mc2155. None of the other mycobacterial strains decolorized the compounds. Note that the compound numbers are also referred to herein with the prefix VPC.
as §5
Decolorization: Almost all the yellow nitazoxanides, namely 16b1090, 16b1092 and 16b1093, 16b1094, 16b2023, 16b2025, and 16b2026 were decolorized by M. smegmatis strain mc2155. None of the other mycobacterial strains decolorized the compounds.

[8] = system: M. tuberculosis; assay: microbe, parasite or virus in culture; type: cell-based, Mycobacterium tuberculosis; design: % Inhibit growth, H37Rv / % Inhibit growth, Susceptible / % Inhibit growth, MDR / % Inhibit growth, XDR / inhibition: dose or concentration left out as unconfirmed; conditions: for inhibition: Mycobacterium tuberculosis; for % Inhibit growth, MDR: MDR strain; for % Inhibit growth, MDR / % Inhibit growth, Susceptible / % Inhibit growth, XDR / % Inhibit growth, H37Rv / Potency against M. tuberculosis in words (Table 1): agar proportion method; for % Inhibit growth, Susceptible: Susceptible strain; for % Inhibit growth, XDR: XDR strain; for % Inhibit growth, H37Rv: strain H37Rv
[9] = system: Mycobacterium tuberculosis; conditions: agar proportion
[10] = H37RV, isolate H37Rv (Reference)
[11] = read-out: % Inhibit growth, MDR
[12] = read-out: % Inhibit growth, XDR

Row | Compound | MIC [1, 10] | MIC ([1]; isolate 234 (MDR-TB)) | MIC ([1]; isolate 283 (susceptible)) | MIC ([1]; isolate 565 (MDR-TB)) | MIC ([1]; isolate 694 (MDR-TB)) | MIC ([1]; isolate 750 (MDR-TB)) | MIC ([1]; isolate 823 (XDR-TB)) | MIC ([1]; isolate 971 (MDR-TB)) | MIC [2] | MIC [3] | MIC [4] | MIC [5] | MIC [7] | inhibition [8, 11] | inhibition [8, 12] | further results
1 | NNC(=O)c1ccncc1 [Isoniazid, reference compound] | ≤ 125 µg/mL | 16000 µg/mL (≈ 117 mM) | ≤ 125 µg/mL | 8000 µg/mL (≈ 58.3 mM) | 16000 µg/mL (≈ 117 mM) | 8000 µg/mL (≈ 58.3 mM) | 8000 µg/mL (≈ 58.3 mM) | 4000 µg/mL (≈ 29.2 mM) | – | – | – | – | – | – | – | –
2 | CC(=O)Oc1ccccc1C(=O)Nc1ncc([N+](=O)[O-])s1 [Nitazoxanide, 2-(acetyloxy)-N-(5-nitro-2-thiazolyl)benzamide, reference compound] | – | – | – | – | – | – | – | – | 63 µg/mL (≈ 0.205 mM) | 63 µg/mL (≈ 0.205 mM) | 31 µg/mL (≈ 0.101 mM) | 250 µg/mL (≈ 0.814 mM) | > 250 µg/mL | – | – | Action against TB in presence of proteins found in serum [6]: inhibited by proteins that would be found in serum
3 | CO[C@H]1/C=C/O[C@@]2(C)Oc3c(C)c(O)c4c(O)c(c(/C=N/N5CCN(C)CC5)c(O)c4c3C2=O)NC(=O)/C(C)=C\C=C\[C@H](C)[C@H](O)[C@@H](C)[C@@H](O)[C@@H](C)[C@H](OC(C)=O)[C@@H]1C [Rifampin, reference compound] | ≤ 125 µg/mL | 16000 µg/mL (≈ 19.4 mM) | ≤ 125 µg/mL | ≥ 32000 µg/mL | ≥ 32000 µg/mL | ≥ 32000 µg/mL | ≥ 32000 µg/mL | ≥ 32000 µg/mL | – | – | – | – | – | – | – | –
4 | O=C(Nc1ncc([N+](=O)[O-])s1)c1ccc(Cl)c(C(F)(F)F)c1 [VPC16a1060, 4-Chloro-N-(5-nitrothiazol-2-yl)-3-(trifluoromethyl)benzamide] | – | – | – | – | – | – | – | – | – | – | – | – | – | 98% | 90% | –
5 | CCCCCC(=O)Nc1sc([N+](=O)[O-])cc1[N+](=O)[O-] [VPC16b1089] | – | – | – | – | – | – | – | – | – | – | – | – | – | – | – | Minimal Inhibitory Concentration, M. abscessus [2]: 4. μg/mL; Minimal Inhibitory Concentration, M. chelonae [3]: 31 µg/mL; Minimal Inhibitory Concentration, M. marinum [4]: 16 µg/mL; Minimal Inhibitory Concentration, M. avium [5]: 63 µg/mL; % Inhibit growth, MDR [8]: 0%; % Inhibit growth, Susceptible [8]: 0%; % Inhibit growth, XDR [8]: 0%; % Inhibit growth, H37Rv [8]: 0%; Minimal Inhibitory Concentration, M. smegmatis [7]: 125 µg/mL
6 | O=C(Nc1sc([N+](=O)[O-])cc1[N+](=O)[O-])c1ccccc1 [VPC16b1090] | 4000 µg/mL (≈ 13.6 mM) | 4000 µg/mL (≈ 13.6 mM) | 4000 µg/mL (≈ 13.6 mM) | 4000 µg/mL (≈ 13.6 mM) | 2000 µg/mL (≈ 6.82 mM) | 4000 µg/mL (≈ 13.6 mM) | 4000 µg/mL (≈ 13.6 mM) | 2000 µg/mL (≈ 6.82 mM) | 0.5 µg/mL (≈ 0.0017 mM) | 1 µg/mL (≈ 0.00341 mM) | 4 µg/mL (≈ 0.0136 mM) | 8 µg/mL (≈ 0.0273 mM) | 16 µg/mL (≈ 0.0546 mM) | 100% | 100% | Potency against M. tuberculosis in words (Table 1) [8]: most potent
7 | O=C(Nc1sc([N+](=O)[O-])cc1[N+](=O)[O-])c1cccc(C(F)(F)F)c1 [VPC16b1092] | – | – | – | – | – | – | – | – | – | – | – | – | – | – | – | MIC ([9]; isolate 234 (MDR-TB)): 2000 µg/mL (≈ 5.54 mM); MIC ([9]; isolate 283 (susceptible)): 2000 µg/mL (≈ 5.54 mM); MIC ([9]; isolate 565 (MDR-TB)): 2000 µg/mL (≈ 5.54 mM); MIC ([9]; isolate 694 (MDR-TB)): 1000 µg/mL (≈ 2.77 mM); MIC ([9]; isolate 750 (MDR-TB)): 2000 µg/mL (≈ 5.54 mM); MIC ([9]; isolate 823 (XDR-TB)): 2000 µg/mL (≈ 5.54 mM); MIC ([9]; isolate 971 (MDR-TB)): 2000 µg/mL (≈ 5.54 mM); MIC ([9]; isolate H37Rv (Reference)): 2000 µg/mL (≈ 5.54 mM); Minimal Inhibitory Concentration, M. abscessus [2]: 0.25 µg/mL; Minimal Inhibitory Concentration, M. chelonae [3]: 4 µg/mL; Minimal Inhibitory Concentration, M. marinum [4]: 4 µg/mL; Minimal Inhibitory Concentration, M. avium [5]: 8 µg/mL; % Inhibit growth, MDR [8]: 100%; % Inhibit growth, Susceptible [8]: 100%; % Inhibit growth, XDR [8]: 100%; Potency against M. tuberculosis in words (Table 1) [8]: most potent; % Inhibit growth, H37Rv [8]: 100%; Minimal Inhibitory Concentration, M. smegmatis [7]: 31 µg/mL
8 | O=C(Nc1sc([N+](=O)[O-])cc1[N+](=O)[O-])c1cccs1 [VPC16b1093, N-(3,5-Dinitrothiophen-2-yl)thiophene-2-carboxamide] | – | – | – | – | – | – | – | – | 1 µg/mL (≈ 0.00334 mM) | 2 µg/mL (≈ 0.00668 mM) | 31 µg/mL (≈ 0.104 mM) | 31 µg/mL (≈ 0.104 mM) | 125 µg/mL (≈ 0.418 mM) | 100% | 100% | –
